Assay: xn = mol fraction of the nth substance listed
Conditions: Gas, Buoyancy - hydrostatic balance with magnetic suspension - one sinker

C=C(F)C(F)(F)F [2,3,3,3-tetrafluoro-1-propene] + FCF
Conditions | mass density [kg/m3]
279.8 K, 225 kPa, x1 = 0.202 | 6.518
279.81 K, 366 kPa, x1 = 0.202 | 10.881
279.82 K, 422 kPa, x1 = 0.61 | 18.046
279.82 K, 531 kPa, x1 = 0.202 | 16.362
279.99 K, 139 kPa, x1 = 0.61 | 5.52
280 K, 292 kPa, x1 = 0.61 | 12.065
289.13 K, 223 kPa, x1 = 0.202 | 6.201
289.13 K, 326 kPa, x1 = 0.202 | 9.243
289.13 K, 498 kPa, x1 = 0.202 | 14.57
289.14 K, 652 kPa, x1 = 0.202 | 19.613
289.24 K, 435 kPa, x1 = 0.61 | 17.849
289.25 K, 300 kPa, x1 = 0.61 | 11.915
289.27 K, 142 kPa, x1 = 0.61 | 5.456
289.35 K, 825 kPa, x1 = 0.062 | 21.899
289.47 K, 272 kPa, x1 = 0.062 | 6.547
289.52 K, 465 kPa, x1 = 0.062 | 11.568
298.56 K, 1030 kPa, x1 = 0.062 | 27.002
298.65 K, 448 kPa, x1 = 0.61 | 17.642
298.65 K, 795 kPa, x1 = 0.062 | 19.996
298.67 K, 524 kPa, x1 = 0.062 | 12.632
298.68 K, 146 kPa, x1 = 0.61 | 5.4
298.68 K, 314 kPa, x1 = 0.062 | 7.355
298.7 K, 309 kPa, x1 = 0.61 | 11.815
298.95 K, 208 kPa, x1 = 0.366 | 6.462
298.96 K, 416 kPa, x1 = 0.366 | 13.396
298.97 K, 629 kPa, x1 = 0.366 | 21.025
299.11 K, 197 kPa, x1 = 0.202 | 5.25
299.11 K, 460 kPa, x1 = 0.202 | 12.798
299.11 K, 653 kPa, x1 = 0.202 | 18.744
299.11 K, 817 kPa, x1 = 0.202 | 24.131
308.21 K, 285 kPa, x1 = 0.062 | 6.408
308.21 K, 465 kPa, x1 = 0.062 | 10.702
308.21 K, 692 kPa, x1 = 0.062 | 16.408
308.21 K, 839 kPa, x1 = 0.062 | 20.316
308.21 K, 1102 kPa, x1 = 0.062 | 27.74
308.23 K, 1301 kPa, x1 = 0.062 | 33.802
308.29 K, 170 kPa, x1 = 0.61 | 6.134
308.3 K, 340 kPa, x1 = 0.61 | 12.602
308.32 K, 577 kPa, x1 = 0.61 | 22.346
308.33 K, 769 kPa, x1 = 0.61 | 30.942
308.47 K, 201 kPa, x1 = 0.366 | 6.029
308.47 K, 387 kPa, x1 = 0.366 | 11.937
308.47 K, 560 kPa, x1 = 0.366 | 17.726
308.47 K, 794 kPa, x1 = 0.366 | 26.137
308.69 K, 226 kPa, x1 = 0.202 | 5.868
308.69 K, 390 kPa, x1 = 0.202 | 10.341
308.69 K, 569 kPa, x1 = 0.202 | 15.462
308.7 K, 735 kPa, x1 = 0.202 | 20.457
308.7 K, 1050 kPa, x1 = 0.202 | 30.682
317.75 K, 163 kPa, x1 = 0.062 | 3.497
317.75 K, 406 kPa, x1 = 0.062 | 8.95
317.75 K, 648 kPa, x1 = 0.062 | 14.699
317.75 K, 910 kPa, x1 = 0.062 | 21.311
317.75 K, 1331 kPa, x1 = 0.062 | 32.968
317.78 K, 1625 kPa, x1 = 0.062 | 42.032
317.89 K, 139 kPa, x1 = 0.61 | 4.816
317.89 K, 309 kPa, x1 = 0.61 | 11.009
317.9 K, 527 kPa, x1 = 0.61 | 19.436
317.92 K, 735 kPa, x1 = 0.61 | 28.033
317.92 K, 929 kPa, x1 = 0.61 | 36.73
318.29 K, 219 kPa, x1 = 0.202 | 5.48
318.29 K, 398 kPa, x1 = 0.202 | 10.192
318.29 K, 586 kPa, x1 = 0.202 | 15.349
318.29 K, 790 kPa, x1 = 0.202 | 21.254
318.29 K, 1058 kPa, x1 = 0.202 | 29.49
318.3 K, 1336 kPa, x1 = 0.202 | 38.819
318.53 K, 165 kPa, x1 = 0.366 | 4.746
318.53 K, 351 kPa, x1 = 0.366 | 10.354
318.53 K, 563 kPa, x1 = 0.366 | 17.123
318.53 K, 766 kPa, x1 = 0.366 | 23.969
318.53 K, 1009 kPa, x1 = 0.366 | 32.745
327.52 K, 157 kPa, x1 = 0.61 | 5.289
327.52 K, 329 kPa, x1 = 0.61 | 11.37
327.52 K, 536 kPa, x1 = 0.61 | 19.029
327.53 K, 930 kPa, x1 = 0.61 | 35.068
327.54 K, 1122 kPa, x1 = 0.61 | 43.758
327.55 K, 734 kPa, x1 = 0.61 | 26.847
328.33 K, 223 kPa, x1 = 0.062 | 4.64
328.34 K, 637 kPa, x1 = 0.062 | 13.854
328.34 K, 945 kPa, x1 = 0.062 | 21.307
328.34 K, 1335 kPa, x1 = 0.062 | 31.333
328.34 K, 1696 kPa, x1 = 0.062 | 41.656
328.34 K, 2027 kPa, x1 = 0.062 | 52.145
328.43 K, 227 kPa, x1 = 0.202 | 5.515
328.43 K, 367 kPa, x1 = 0.202 | 9.049
328.43 K, 626 kPa, x1 = 0.202 | 15.83
328.43 K, 849 kPa, x1 = 0.202 | 22.032
328.43 K, 1140 kPa, x1 = 0.202 | 30.631
328.43 K, 1427 kPa, x1 = 0.202 | 39.78
328.43 K, 1696 kPa, x1 = 0.202 | 49.141
328.58 K, 1144 kPa, x1 = 0.366 | 36.066
328.58 K, 1280 kPa, x1 = 0.366 | 41.182
328.6 K, 618 kPa, x1 = 0.366 | 18.221
328.6 K, 894 kPa, x1 = 0.366 | 27.268
328.61 K, 203 kPa, x1 = 0.366 | 5.679
328.61 K, 380 kPa, x1 = 0.366 | 10.866
337.94 K, 261 kPa, x1 = 0.062 | 5.321
337.94 K, 1368 kPa, x1 = 0.062 | 30.983
337.95 K, 1030 kPa, x1 = 0.062 | 22.524
337.95 K, 1871 kPa, x1 = 0.062 | 44.844
337.95 K, 2216 kPa, x1 = 0.062 | 54.98
338.06 K, 1097 kPa, x1 = 0.202 | 27.951
338.06 K, 1440 kPa, x1 = 0.202 | 38.107
338.06 K, 1722 kPa, x1 = 0.202 | 47.144
338.06 K, 2012 kPa, x1 = 0.202 | 57.214
338.07 K, 229 kPa, x1 = 0.202 | 5.349
338.07 K, 435 kPa, x1 = 0.202 | 10.38
338.07 K, 663 kPa, x1 = 0.202 | 16.152
338.07 K, 900 kPa, x1 = 0.202 | 22.468
338.13 K, 157 kPa, x1 = 0.61 | 5.11
338.13 K, 347 kPa, x1 = 0.61 | 11.583
338.13 K, 545 kPa, x1 = 0.61 | 18.632
338.14 K, 742 kPa, x1 = 0.61 | 26.034
338.14 K, 949 kPa, x1 = 0.61 | 34.303
338.15 K, 1176 kPa, x1 = 0.61 | 43.906
338.15 K, 1363 kPa, x1 = 0.61 | 52.402
338.27 K, 391 kPa, x1 = 0.366 | 10.828
338.27 K, 1611 kPa, x1 = 0.366 | 51.607
338.28 K, 203 kPa, x1 = 0.366 | 5.523
338.28 K, 605 kPa, x1 = 0.366 | 17.163
338.28 K, 888 kPa, x1 = 0.366 | 25.992
338.28 K, 1124 kPa, x1 = 0.366 | 33.805
338.28 K, 1339 kPa, x1 = 0.366 | 41.354
346.7 K, 514 kPa, x1 = 0.202 | 11.999
346.7 K, 754 kPa, x1 = 0.202 | 17.999
346.7 K, 1075 kPa, x1 = 0.202 | 26.432
346.71 K, 102 kPa, x1 = 0.202 | 2.301
346.71 K, 314 kPa, x1 = 0.202 | 7.219
346.71 K, 1395 kPa, x1 = 0.202 | 35.395
346.71 K, 1836 kPa, x1 = 0.202 | 48.831
346.71 K, 2339 kPa, x1 = 0.202 | 66.017
346.72 K, 2053 kPa, x1 = 0.202 | 55.971
347.61 K, 2249 kPa, x1 = 0.062 | 52.666
347.62 K, 600 kPa, x1 = 0.062 | 12.06
347.62 K, 1099 kPa, x1 = 0.062 | 23.044
347.62 K, 1445 kPa, x1 = 0.062 | 31.254
347.62 K, 2663 kPa, x1 = 0.062 | 65.472
347.8 K, 256 kPa, x1 = 0.61 | 8.159
347.81 K, 464 kPa, x1 = 0.61 | 15.105
347.81 K, 667 kPa, x1 = 0.61 | 22.236
347.81 K, 880 kPa, x1 = 0.61 | 30.083
347.81 K, 1108 kPa, x1 = 0.61 | 38.968
347.81 K, 1320 kPa, x1 = 0.61 | 47.76
347.81 K, 1481 kPa, x1 = 0.61 | 54.813
347.81 K, 1715 kPa, x1 = 0.61 | 65.61
347.93 K, 143 kPa, x1 = 0.366 | 3.726
347.93 K, 390 kPa, x1 = 0.366 | 10.422
347.93 K, 675 kPa, x1 = 0.366 | 18.538
347.93 K, 897 kPa, x1 = 0.366 | 25.186
347.93 K, 1198 kPa, x1 = 0.366 | 34.699
347.93 K, 1496 kPa, x1 = 0.366 | 44.776
347.93 K, 1753 kPa, x1 = 0.366 | 54.093
347.94 K, 2000 kPa, x1 = 0.366 | 63.729

From the NIST ThermoML archive (doi:10.1016/j.fluid.2017.12.037)
